# Data reported in PMC4319692 (Molecular Pharmaceutics, 2014).
# Test: Metabolic stability in human liver microsomes
# Type: in vitro ADME
# Details: 10 μM, pooled human liver microsomes 1 mg/mL with cofactors, 2 h
compound,measurement,value
C[C@]12CC[C@H]3[C@@H](CCC4=CC(=O)CC[C@@]43C)[C@@H]1CC[C@@H]2O [testosterone],decrease (disappearance) of parent compound,more than 95%
